Measurements reported in patent US9676714B2, “Sulfonylindole derivatives and method for preparing the same” (Daewoong Pharmaceutical Co., Ltd., priority 2013, dated 2017).
Where a name gives a salt, the structure may show the parent alone.

How the values were obtained:
[1] = test system: basal gastric acid secretion; experiment: Inhibitory effect on the basal gastric acid secretion in pylorus-ligated rats (Shay's rat model); assay type: in vivo, Sprague Dawley (SD) rats; details: 5 h, male SD rats, 3 mg/kg/2 ml into the duodenum, five hours after the ligation, total gastric acid secretion vs control group
Procedure: 3) Inhibitory Effect on the Basal Gastric Acid Secretion in Pylorus-Ligated Rats
Assays for determining inhibitory effect of the compounds of the present invention on the basal gastric acid secretion was performed according to Shay's rat model (Shay, H., et al., 1945, gastroenterology, 5, p. 43-61). Male Sprague Dawley (SD) rats with a body weight in the range of 180˜220 g were divided into test (n=5) and control groups (n=5), and fasted for 18 hours with free access to water. Under isoflurane anesthesia, the abdomens of the rats were incised and then the pylorus was ligated. After the ligation, the control groups were administered with only 10% ethanol, 20% polyethylene glycol (PEG) 400, and 10% aqueous Cremophor solution through the duodenum, and the other groups were administered with test compounds suspended in 10% ethanol, 20% PEG 400, and 10% aqueous Cremophor solution at a concentration of 3 mg/kg/2 ml into the duodenum. Five hours after the ligation, the experimental animals were euthanized and their stomach contents were collected. The thus obtained contents were centrifuged at 4,000×g for 10 minutes, and the supernatant was recovered to obtain gastric juice therefrom. The amount of the gastric juice and its pH were measured. The acidity of the gastric juice was determined by 0.1 N-NaOH volume (ueq/mL) for automatic titration of gastric acid to pH 7.0. The total acid output was obtained by multiplying the gastric acidity by the amount of gastric juice. Inhibition Activity (%) of Test Compounds=(total gastric acid secretion in control group−total gastric acid secretion in groups treated with test compounds)/total gastric acid secretion in control group×100

[2] = target: T1, proton pump (H+/K+-ATPase) (Sus scrofa, UniProt P19156); experiment: Measurement of inhibitory effects on proton pump (H+/K+-ATPase) activities; assay type: biochemical; details: hog gastric vesicles, K+-specific H+/K+-ATPase activity, Tris-HCl buffer pH 7.4, 37° C. for 40 minutes, malachite green Pi readout
T1 construct: Gastric vesicles were prepared from hog stomach via centrifugal separation; from tissue; host or cells: hog stomach (gastric vesicles, method of Rabon et al. 1988)
T1 sequence (P19156 whole entry): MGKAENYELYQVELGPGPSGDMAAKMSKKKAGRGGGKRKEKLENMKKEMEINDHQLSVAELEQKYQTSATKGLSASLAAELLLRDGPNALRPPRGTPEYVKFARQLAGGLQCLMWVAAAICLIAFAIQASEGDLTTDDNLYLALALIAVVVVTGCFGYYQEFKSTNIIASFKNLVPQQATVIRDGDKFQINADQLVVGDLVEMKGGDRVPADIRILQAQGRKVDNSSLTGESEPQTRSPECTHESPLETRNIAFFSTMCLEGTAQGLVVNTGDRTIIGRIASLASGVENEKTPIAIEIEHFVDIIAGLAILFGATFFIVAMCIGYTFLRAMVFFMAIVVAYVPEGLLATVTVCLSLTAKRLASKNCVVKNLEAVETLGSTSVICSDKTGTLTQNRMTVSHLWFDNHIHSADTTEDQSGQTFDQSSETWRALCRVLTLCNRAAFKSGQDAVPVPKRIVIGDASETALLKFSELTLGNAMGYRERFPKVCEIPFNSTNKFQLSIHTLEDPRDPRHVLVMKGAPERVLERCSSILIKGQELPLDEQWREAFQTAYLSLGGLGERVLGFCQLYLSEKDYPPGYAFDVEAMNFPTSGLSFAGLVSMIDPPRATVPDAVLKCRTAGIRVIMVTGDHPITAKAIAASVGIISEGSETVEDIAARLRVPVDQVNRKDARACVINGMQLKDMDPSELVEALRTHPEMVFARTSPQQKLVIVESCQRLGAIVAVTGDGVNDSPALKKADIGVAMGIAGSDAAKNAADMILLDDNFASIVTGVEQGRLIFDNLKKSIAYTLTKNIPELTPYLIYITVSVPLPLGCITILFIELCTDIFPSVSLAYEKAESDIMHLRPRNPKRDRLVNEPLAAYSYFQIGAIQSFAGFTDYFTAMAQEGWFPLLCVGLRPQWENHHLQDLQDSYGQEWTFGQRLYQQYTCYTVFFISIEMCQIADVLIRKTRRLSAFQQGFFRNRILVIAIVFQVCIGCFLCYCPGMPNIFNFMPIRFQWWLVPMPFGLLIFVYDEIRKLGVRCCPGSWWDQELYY
T1 sequence (P18434 whole entry partner): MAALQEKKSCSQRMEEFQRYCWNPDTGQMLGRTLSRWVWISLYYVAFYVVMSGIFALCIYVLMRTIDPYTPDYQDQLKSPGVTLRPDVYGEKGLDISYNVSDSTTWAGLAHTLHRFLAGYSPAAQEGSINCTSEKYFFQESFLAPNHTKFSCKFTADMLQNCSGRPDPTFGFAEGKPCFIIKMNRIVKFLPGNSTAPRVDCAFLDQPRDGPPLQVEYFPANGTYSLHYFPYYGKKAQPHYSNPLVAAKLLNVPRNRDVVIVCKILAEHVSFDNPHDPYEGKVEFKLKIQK
Method in brief: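 Hog gastric vesicles in 60 mmol/l Tris-HCl pH 7.4 with 0.5% DMSO were treated with compounds at room temperature; reaction was started with 10 μl of 10 mmol/l ATP stock. Released Pi was read at 570 nm, K+-specific activity taken as the ±K+ difference. IC50 from 4-parameter logistic fit.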

SMILES	IC50 [2] [µM]	inhibition in vivo at 3 mg/kg [1] [%]
CNCc1cn(S(=O)(=O)c2cccnc2)c2cc(Cc3ccc(C)cc3)ccc12 [Example 270, N-methyl-1-(6-(4-methylbenzyl)-1-(pyridin-3-ylsulfonyl)-1H-indol-3-yl)methanamine hydrochloride]	0.79	38
CNCc1cn(S(=O)(=O)c2cccnc2)c2cc(Nc3ccc(Cl)cc3C(F)(F)F)ccc12 [Example 31, N-(4-chloro-2-(trifluoromethyl)phenyl)-3-((methylamino)methyl)-1-(pyridin-3-ylsulfonyl)-1H-indol-6-amine hydrochloride]	0.92	41
CNCc1cn(S(=O)(=O)c2cncc(F)c2)c2cc(Nc3ccc(OC)nc3Cl)ccc12 [Example 217, N-(2-chloro-6-methoxypyridin-3-yl)-1-((5-fluoropyridin-311)sulfonyl)-3-((methylamino)methyl)-1H-indol-6-amine hydrochloride]	0.54	44
CNCc1cn(S(=O)(=O)c2cccc(F)c2)c2cc(Nc3ccc(OC(F)(F)F)cc3OC)ncc12 [Example 356, 1-((3-fluorophenyl)sulfonyl)-N-(2-methoxy-4-(trifluoromethoxy)phenyl)-3-((methylamino)methyl)-1H-pyrrolo[3,2-c]pyridin-6-amine hydrochloride]	2	63
CNCc1cn(S(=O)(=O)c2cccnc2)c2cc(Nc3cccnc3OC)ccc12 [Example 108, N-(2-methoxypyridin-3-yl)-3-((methylamino)methyl)-1-(pyridin-3-ylsulfonyl)-1H-indol-6-amine hydrochloride]	1.59	49
CNCc1cn(S(=O)(=O)c2cccnc2)c2cc(Nc3ccc(OC)cc3OC(F)(F)F)ccc12 [Example 50, N-(4-methoxy-2-(trifluoromethoxy)phenyl)-3-((methylamino)methyl)-1-(pyridin-3-ylsulfonyl)-1H-indol-6-amine hydrochloride]	1.37	67
CNCc1cn(S(=O)(=O)c2cccc(F)c2)c2cc(Nc3ccc(OC)nc3Cl)ccc12 [Example 144, N-(2-chloro-6-methoxypyridin-3-yl)-1-((3-fluorophenyl)sulfonyl)-3-((methylamino)methyl)-1H-indol-6-amine hydrochloride]	0.38	53
CNCc1cn(S(=O)(=O)c2cncc(F)c2)c2cc(Nc3ccc(OC(F)(F)F)cc3OC)ccc12 [Example 216, 1-((5-fluoropyridin-3-yl)sulfonyl)-N-(2-methoxy-4-(trifluoromethoxy)phenyl)-3-((methylamino)methyl)-1H-indol-6-amine hydrochloride]	1.5	69
CNCc1cn(S(=O)(=O)c2cccc(F)c2)c2cc(Nc3ccc(Cl)cc3Cl)cnc12 [Example 342, N-(2,4-dichlorophenyl)-1-((3-fluorophenyl)sulfonyl)-3-((methylamino)methyl)-1H-pyrrolo[3,2-b]pyridin-6-amine hydrochloride]	0.4	41
CNCc1cn(S(=O)(=O)c2cccnc2)c2cc(Nc3ccc(C(F)(F)F)nc3Cl)ccc12 [Example 125, N-(2-chloro-6-(trifluoromethyl)pyridin-3-yl)-3-((methylamino)methyl)-1-(pyridin-3-ylsulfonyl)-1H-indol-6-amine hydrochloride]	1.06	45
CNCc1cn(S(=O)(=O)c2cccnc2)c2cc(Cc3ccc(C)c(F)c3F)ccc12 [Example 286, 1-(6-(2,3-difluoro-4-methylbenzyl)-1-(pyridin-3-ylsulfonyl)-1H-indol-3-yl)-N-methylmethanamine hydrochloride]	0.39	35
CNCc1cn(S(=O)(=O)c2cccc(F)c2)c2cc(Nc3ccc(Cl)nc3OC)ccc12 [Example 141, N-(6-chloro-2-methoxypyridin-3-yl)-1-((3-fluorophenyl)sulfonyl)-3-((methylamino)methyl)-1H-indol-6-amine hydrochloride]	0.39	51
CNCc1cn(S(=O)(=O)c2cccnc2)c2cc(Nc3ccc(OC(F)(F)F)cc3Cl)ccc12 [Example 55, N-(2-chloro-4-(trifluoromethoxy)phenyl)-3-((methylamino)methyl)-1-(pyridin-3-ylsulfonyl)-1H-indol-6-amine hydrochloride]	0.42	55
CNCc1cn(S(=O)(=O)c2cccnc2)c2cc(Nc3ccnc(Cl)c3Br)ccc12 [Example 133, N-(3-bromo-2-chloropyridin-4-yl)-3-((methylamino)methyl)-1-(pyridin-3-ylsulfonyl)-1H-indol-6-amine hydrochloride]	0.77	40
CNCc1cn(S(=O)(=O)c2cccnc2)c2cc(Nc3ccc(Cl)cc3F)ccc12 [Example 28, N-(4-chloro-2-fluorophenyl)-3-((methylamino)methyl)-1-(pyridin-3-ylsulfonyl)-1H-indol-6-amine hydrochloride]	0.74	44
CNCc1cn(S(=O)(=O)c2cccnc2)c2cc(Nc3ccc(Cl)nc3OC)ccc12 [Example 120, N-(6-chloro-2-methoxypyridin-3-yl)-3-((methylamino)methyl)-1-(pyridin-3-ylsulfonyl)-1H-indol-6-amine hydrochloride]	0.42	46
CNCc1cn(S(=O)(=O)c2cccc(C(F)(F)F)c2)c2cc(N(C)c3ccc(OC)nc3Cl)ccc12 [Example 315, N-(2-chloro-6-methoxypyridin-3-yl)-N-methyl-3-((methylamino)methyl)-1-((3-(trifluoromethyl)phenyl)sulfonyl)-1H-indol-6-amine hydrochloride]	2.95	45

Further compounds by falling IC50 [2], results first:

IC50 [2] [µM]	SMILES	inhibition in vivo at 3 mg/kg [1] [%]
0.37	CNCc1cn(S(=O)(=O)c2cncc(F)c2)c2cc(Nc3ccc(C)cc3F)ccc12 [Example 210, N-(2-fluoro-4-methylphenyl)-1-((5-fluoropyridin-3-yl)sulfonyl)-3-((methylamino)methyl)-1H-indol-6-amine hydrochloride]	43
0.35	CNCc1cn(S(=O)(=O)c2cccnc2)c2cc(Nc3ccc(OC)nc3Cl)ccc12 [Example 123, N-(2-chloro-6-methoxypyridin-3-yl)-3-((methylamino)methyl)-1-(pyridin-3-ylsulfonyl)-1H-indol-6-amine hydrochloride]	40
0.26	CNCc1cn(S(=O)(=O)c2cccc(Cl)c2)c2cc(Nc3ccc(OC)cc3F)ccc12 [Example 153, 1-((3-chlorophenyl)sulfonyl)-N-(2-fluoro-4-methoxyphenyl)-3-((methylamino)methyl)-1H-indol-6-amine hydrochloride]	42
0.23	CNCc1cn(S(=O)(=O)c2cccnc2)c2cc(Cc3ccc(C)cc3Cl)ccc12 [Example 267, 1-(6-(2-chloro-4-methylbenzyl)-1-(pyridin-3-ylsulfonyl)-1H-indol-3-yl)-N-methylmethanamine hydrochloride]	44
0.18	CNCc1cn(S(=O)(=O)c2cccc(F)c2)c2cc(Nc3ccc(OC)cc3F)ccc12 [Example 139, N-(2-fluoro-4-methoxyphenyl)-1-((3-fluorophenyl)sulfonyl)-3-((methylamino)methyl)-1H-indol-6-amine hydrochloride]	40
0.18	CNCc1cn(S(=O)(=O)c2cncc(F)c2)c2cc(Nc3ccc(F)cc3C)ccc12 [Example 212, N-(4-fluoro-2-methylphenyl)-1-((5-fluoropyridin-3-yl)sulfonyl)-3-((methylamino)methyl)-1H-indol-6-amine hydrochloride]	56
0.12	CNCc1cn(S(=O)(=O)c2cccc(F)c2)c2cc(Nc3ccc(F)cc3C)ccc12 [Example 138, N-(4-fluoro-2-methylphenyl)-1-((3-fluorophenyl)sulfonyl)-3-((methylamino)methyl)-1H-indol-6-amine hydrochloride]	55
0.01	CNCc1cn(S(=O)(=O)c2cccc(Cl)c2)c2cc(Nc3ccc(C)cc3OC(F)(F)F)ccc12 [Example 148, 1-((3-chlorophenyl)sulfonyl)-N-(4-methyl-2-(trifluoromethoxy)phenyl)-3-((methylamino)methyl)-1H-indol-6-amine hydrochloride]	45
